Data published in patent US8324384B2, “Glucagon receptor antagonist compounds, compositions containing such compounds and methods of use” (Merck Sharp & Dohme Corp., priority 2010, dated 2012).

target: T1, cloned human glucagon receptor (Homo sapiens, UniProt P47871); experiment: Glucagon Receptor Binding Assay (125I-Glucagon, SPA, CHO cell membranes); details: inhibition of 125I-Glucagon binding to membranes of CHO cells expressing human glucagon receptor; more active isomer of indicated compounds
T1 construct: expressed in transfected cells; cell membranes used
Method: Glucagon Receptor Binding Assay
A stable CHO (Chinese hamster ovary) cell line expressing cloned human glucagon receptor was maintained as described (Chiechi, et. al. J Biol Chem 272, 7765-9(1997); Cascieri, et. al. J Biol Chem 274, 8694-7(1999)). To determine antagonistic binding affinity of compounds, 0.001-0.003 mg of cell membranes from these cells were pre-incubated with 0.100 mg WGA-coated PVT SPA beads (Amersham) for 20 minutes at room temperature in 25 μL of a buffer containing 50 mM Tris-HCl (pH 7.5), 5 mM MgCl2, 2 mM EDTA, 0.1% BSA and 3% glycerol in Costar 384 well plates with clear bottoms (#3706). Next, 25 μL of ^125I-Glucagon (New England Nuclear, MA) (1×10^−14 mol per well) and either 1 μL solutions of test compounds or 0.001 mM unlabeled glucagon or DMSO were added and mixed. After 4-12 hours incubation at room temperature, the radioactivity bound to the cell membranes was determined in a radioactive emission detection counter (Wallac-Microbeta). Data were analyzed using the Data Analyzer software program of Merck & Co., Inc. The IC50 values were calculated using non-linear regression analysis assuming single-site competition.

T1 sequence (P47871 26-477): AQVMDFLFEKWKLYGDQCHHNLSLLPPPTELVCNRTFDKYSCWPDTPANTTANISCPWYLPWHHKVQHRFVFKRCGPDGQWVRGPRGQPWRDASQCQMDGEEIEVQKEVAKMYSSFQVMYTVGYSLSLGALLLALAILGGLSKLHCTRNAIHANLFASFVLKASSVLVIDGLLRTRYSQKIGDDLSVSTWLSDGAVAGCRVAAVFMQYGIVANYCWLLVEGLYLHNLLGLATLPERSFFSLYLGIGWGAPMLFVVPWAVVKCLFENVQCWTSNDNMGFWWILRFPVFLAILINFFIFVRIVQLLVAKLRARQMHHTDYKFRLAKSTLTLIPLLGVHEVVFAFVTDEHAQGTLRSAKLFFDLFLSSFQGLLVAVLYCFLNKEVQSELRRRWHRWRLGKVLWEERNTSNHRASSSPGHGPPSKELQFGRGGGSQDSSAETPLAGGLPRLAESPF

IC50 [nM] | SMILES
1.1 | CCCC(c1ccc(C(=O)NCC(O)C(=O)O)cc1)C(C(=O)N1Cc2ccc(OC(F)(F)F)cc2C1)c1ccc(Cl)cc1 (mixture of isomers) [Example 99]
5.9 | CCCC(c1ccc(C(=O)NC(C)CC(=O)O)cc1)C(C(=O)N1Cc2ccc(OC(F)(F)F)cc2C1)c1ccc(Cl)cc1 (mixture of isomers) [Example 101]
10 | CCCC(c1ccc(C(=O)NCCC(=O)O)cc1)C(C(=O)N1CCc2ccccc21)c1ccc(Cl)cc1 (racemic) [Example 3, N-(4-{1-[1-(4-chlorophenyl)-2-(2,3-dihydro-1H-indol-1-yl)-2-oxoethyl]butyl}benzoyl)-β-alanine]
48 | CCCC(c1ccc(C(=O)NCCC(=O)O)cc1)C(C(=O)N1CCCc2ccccc21)c1ccc(Cl)cc1 (single isomer, unassigned) [Example 2, N-(4-{1-[1-(4-chlorophenyl)-2-(3,4-dihydroquinolin-1(2H)-yl)-2-oxoethyl]butyl}benzoyl)-β-alanine]
0.1 | CCCC(c1ccc(C(=O)NCCC(=O)O)cc1)C(C(=O)N1Cc2cccc(C)c2C1)c1ccc(Cl)cc1 (single isomer, unassigned) [Example 49]
2.2 | CCCC(c1ccc(C(=O)Nc2nnn[nH]2)cc1)C(C(=O)N1Cc2ccc(OC(F)(F)F)cc2C1)c1ccc(Cl)cc1 (stereo not shown) [Example 5]
0.4 | CCCC(c1ccc(C(=O)NCCC(=O)O)cc1)C(C(=O)N1Cc2ccc(C(F)(F)F)cc2C1)c1ccc(C(F)(F)F)cc1 (stereo not shown) [Example 6]
0.4 | CCCC(c1ccc(C(=O)NCCC(=O)O)cc1)C(C(=O)N1Cc2ccc(-c3ccc(OC)nc3)cc2C1)c1ccc(C(F)(F)F)cc1 (stereo not shown) [Example 8]
2 | CCCC(c1ccc(C(=O)NCCC(=O)O)cc1)C(C(=O)N1Cc2ccc(-c3cc(OC)ccn3)cc2C1)c1ccc(Cl)cc1 (stereo not shown) [Example 13]
0.6 | CCCC(c1ccc(C(=O)NCCC(=O)O)cc1)C(C(=O)N1Cc2ccc(-c3ccnc(C)c3)cc2C1)c1ccc(Cl)cc1 (stereo not shown) [Example 30]

More lines, now with the values behind:

SMILES | IC50 [nM]
CCCC(c1ccc(C(=O)NCCC(=O)O)cc1)C(C(=O)N1Cc2cccc(C(F)(F)F)c2C1)c1ccc(Cl)cc1 (single isomer, unassigned) [Example 1, N-[4-(1-{1-(4-chlorophenyl)-2-oxo-2-[4-(trifluoromethyl)-1,3-dihydro-2H-isoindol-2-yl]ethyl}butyl)benzoyl]-β-alanine] | 0.8
CCCC(c1ccc(C(=O)NCCC(=O)O)cc1)C(C(=O)N1Cc2ccc(-c3cccnc3OC)cc2C1)c1ccc(Cl)cc1 (single isomer, unassigned) [Example 4, N-[4-(1-{1-(4-chlorophenyl)-2-[5-(2-methoxypyridin-3-yl)-1,3-dihydro-2H-isoindol2-yl]-2-oxoethyl}butyl)benzoyl]-β-alanine] | 0.5
CCCC(c1ccc(C(=O)NCCC(=O)O)cc1)C(C(=O)N1Cc2cc(Cl)cc(Cl)c2C1)c1ccc(Cl)cc1 (single isomer, unassigned) [Example 55] | 0.6
CCCC(c1ccc(C(=O)NCCC(=O)O)cc1)C(C(=O)N1CCc2cc(-c3ccc(Cl)cc3)ccc2C1)c1ccc(Cl)cc1 (single isomer, unassigned) [Example 69] | 1
CCCC(c1ccc(C(=O)NCCC(=O)O)cc1)C(C(=O)N1CCc2cc(-c3ccc(C)cc3)ccc2C1)c1ccc(Cl)cc1 (single isomer, unassigned) [Example 70] | 1.6
CCCC(c1ccc(C(=O)NCCC(=O)O)cc1)C(C(=O)N1CCc2cc(OC)ccc2C1)c1ccc(Cl)cc1 (single isomer, unassigned) [Example 79] | 1.5
CCCC(c1ccc(C(=O)NCCC(=O)O)cc1)C(C(=O)N1CCc2cc(C(F)(F)F)ccc2C1)c1ccc(Cl)cc1 (single isomer, unassigned) [Example 80] | 0.9
CCCC(c1ccc(C(=O)NCCC(=O)O)cc1)C(C(=O)N1CCc2cc(C)ccc2C1)c1ccc(Cl)cc1 (single isomer, unassigned) [Example 82] | 0.4
CCCC(c1ccc(C(=O)NCCC(=O)O)cc1)C(C(=O)N1CCc2ccc(-c3ccc(C)cc3)cc2C1)c1ccc(Cl)cc1 (single isomer, unassigned) [Example 88] | 3.2
CCCC(c1ccc(C(=O)NCCC(=O)O)cc1)C(C(=O)N1CCc2ccc(F)cc2C1)c1ccc(Cl)cc1 (single isomer, unassigned) [Example 93] | 9.8
CCCC(c1ccc(C(=O)NCCC(=O)O)cc1)C(C(=O)N1Cc2ccc(-c3ccc(OC)nc3)cc2C1)c1cc(F)cc(F)c1 (stereo not shown) [Example 9] | 0.4
CCCC(c1ccc(C(=O)NCCC(=O)O)cc1)C(C(=O)N1Cc2ccc(C#N)cc2C1)c1ccc(Cl)cc1 (stereo not shown) [Example 36] | 5.5
CCCC(c1ccc(C(=O)NCCC(=O)O)cc1)C(C(=O)N1Cc2ccc(C)cc2C1)c1ccc(Cl)cc1 (stereo not shown) [Example 37] | 0.6
CCCC(c1ccc(C(=O)NCCC(=O)O)cc1)C(C(=O)N1Cc2ccc(-c3ccc(OC)nc3)cc2C1)c1ccc(Cl)cc1 (stereo not shown) [Example 41] | 0.6
CCCC(c1ccc(C(=O)NCCC(=O)O)cc1)C(C(=O)N1CCc2cc(-c3ccc(C)cc3)ccc21)c1ccc(Cl)cc1 (stereo not shown) [Example 63] | 0.2
CCCC(c1ccc(C(=O)NCCS(=O)(=O)O)cc1)C(C(=O)N1Cc2ccc(C(F)(F)F)cc2C1)c1ccc(Cl)cc1 (stereo not shown) [Example 107] | 1.1

same assay, conditions: racemic diastereomers of Example 5 separated by reverse-phase HPLC; assay not given

potency as glucagon receptor antagonist relative to the other diastereomer | SMILES
less potent | CCCC(c1ccc(C(=O)Nc2nnn[nH]2)cc1)C(C(=O)N1Cc2ccc(OC(F)(F)F)cc2C1)c1ccc(Cl)cc1 (single isomer, unassigned) [Example 5 Minor isomer]
more potent | CCCC(c1ccc(C(=O)Nc2nnn[nH]2)cc1)C(C(=O)N1Cc2ccc(OC(F)(F)F)cc2C1)c1ccc(Cl)cc1 (stereo not shown) [Example 5]
